# Assays:
# Type in all cases: biochemical
# human TOR = target: T1, human TOR (Homo sapiens, UniProt P42345); experiment: mTOR enzyme assay (DELFIA, His6-S6K substrate); conditions: read-out: mTOR Kinase Avg. IC50
# T1 construct: FLAG
# PI3K-gamma = PI3K-gamma (Homo sapiens, UniProt P48736); experiment: PI3K-gamma fluorescence polarization assay; conditions: PI3Kγ Avg. IC50
# In short: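 Reactions in 5 mM HEPES pH 7, 2.5 mM MgCl2, 25 μM ATP with 2.5 μM diC8-PI(4,5)P2 and 5 ng enzyme, 1 h at 25° C, then EDTA quench. Product detected by FP using GST-GRP1 PH domain (100 nM) and BODIPY-TMR-IP4 tracer (5 nM); final DMSO 0.8%.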
# PI3K-alpha = PI3K-alpha (Homo sapiens, UniProt P42336); experiment: PI3K-alpha fluorescence polarization assay; conditions: read-out: PI3Kα Avg. IC50
# Sequence of PI3K-alpha (P42336 whole entry, species assumed): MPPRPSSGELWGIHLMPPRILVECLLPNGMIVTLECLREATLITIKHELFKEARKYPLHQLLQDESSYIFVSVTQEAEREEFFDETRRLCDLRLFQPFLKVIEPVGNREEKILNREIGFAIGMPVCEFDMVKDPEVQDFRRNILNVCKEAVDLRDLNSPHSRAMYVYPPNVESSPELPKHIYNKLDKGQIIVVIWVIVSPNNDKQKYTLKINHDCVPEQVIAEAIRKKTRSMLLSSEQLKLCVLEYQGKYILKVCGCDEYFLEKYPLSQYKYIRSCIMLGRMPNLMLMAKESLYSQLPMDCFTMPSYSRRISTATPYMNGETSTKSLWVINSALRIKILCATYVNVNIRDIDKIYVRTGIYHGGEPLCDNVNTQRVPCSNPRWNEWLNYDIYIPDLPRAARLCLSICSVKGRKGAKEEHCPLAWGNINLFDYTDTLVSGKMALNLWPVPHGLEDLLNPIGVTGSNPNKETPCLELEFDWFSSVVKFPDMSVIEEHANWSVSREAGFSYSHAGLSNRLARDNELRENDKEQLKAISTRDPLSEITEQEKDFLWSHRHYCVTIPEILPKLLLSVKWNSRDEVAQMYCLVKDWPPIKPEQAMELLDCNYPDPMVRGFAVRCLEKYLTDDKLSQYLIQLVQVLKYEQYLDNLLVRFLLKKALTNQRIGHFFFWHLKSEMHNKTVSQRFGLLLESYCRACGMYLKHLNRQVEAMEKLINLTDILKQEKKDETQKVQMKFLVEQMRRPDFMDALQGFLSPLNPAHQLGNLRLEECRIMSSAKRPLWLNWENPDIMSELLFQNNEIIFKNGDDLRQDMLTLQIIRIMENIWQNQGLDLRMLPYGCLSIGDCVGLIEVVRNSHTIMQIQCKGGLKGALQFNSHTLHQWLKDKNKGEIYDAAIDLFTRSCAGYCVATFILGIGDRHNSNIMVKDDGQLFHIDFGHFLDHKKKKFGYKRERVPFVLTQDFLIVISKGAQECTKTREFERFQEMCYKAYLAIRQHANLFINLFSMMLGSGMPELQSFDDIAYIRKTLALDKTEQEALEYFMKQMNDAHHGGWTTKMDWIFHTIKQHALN
# Sequence of PI3K-alpha (P27986 whole entry partner, species assumed): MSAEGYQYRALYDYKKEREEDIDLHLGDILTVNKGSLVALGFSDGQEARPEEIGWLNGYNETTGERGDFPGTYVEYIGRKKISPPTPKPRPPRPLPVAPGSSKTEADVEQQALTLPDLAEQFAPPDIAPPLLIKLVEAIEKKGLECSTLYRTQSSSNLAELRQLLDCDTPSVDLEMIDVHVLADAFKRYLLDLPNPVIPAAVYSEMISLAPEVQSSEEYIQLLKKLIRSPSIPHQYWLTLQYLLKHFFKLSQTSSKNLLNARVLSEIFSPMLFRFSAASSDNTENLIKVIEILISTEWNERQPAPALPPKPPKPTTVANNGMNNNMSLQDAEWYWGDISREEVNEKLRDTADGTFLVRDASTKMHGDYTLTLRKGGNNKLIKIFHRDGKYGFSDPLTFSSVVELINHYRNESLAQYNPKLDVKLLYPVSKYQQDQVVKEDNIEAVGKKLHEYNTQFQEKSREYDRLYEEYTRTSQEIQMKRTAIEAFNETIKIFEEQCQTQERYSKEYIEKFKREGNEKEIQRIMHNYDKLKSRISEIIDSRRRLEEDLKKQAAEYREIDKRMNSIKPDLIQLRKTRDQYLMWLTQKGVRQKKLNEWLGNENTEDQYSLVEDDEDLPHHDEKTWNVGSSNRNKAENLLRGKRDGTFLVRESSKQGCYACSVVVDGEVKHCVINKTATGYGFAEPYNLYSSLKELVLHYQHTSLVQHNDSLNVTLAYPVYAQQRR
# Sequence of PI3K-gamma (P48736 whole entry, species assumed, the tested form may be a part): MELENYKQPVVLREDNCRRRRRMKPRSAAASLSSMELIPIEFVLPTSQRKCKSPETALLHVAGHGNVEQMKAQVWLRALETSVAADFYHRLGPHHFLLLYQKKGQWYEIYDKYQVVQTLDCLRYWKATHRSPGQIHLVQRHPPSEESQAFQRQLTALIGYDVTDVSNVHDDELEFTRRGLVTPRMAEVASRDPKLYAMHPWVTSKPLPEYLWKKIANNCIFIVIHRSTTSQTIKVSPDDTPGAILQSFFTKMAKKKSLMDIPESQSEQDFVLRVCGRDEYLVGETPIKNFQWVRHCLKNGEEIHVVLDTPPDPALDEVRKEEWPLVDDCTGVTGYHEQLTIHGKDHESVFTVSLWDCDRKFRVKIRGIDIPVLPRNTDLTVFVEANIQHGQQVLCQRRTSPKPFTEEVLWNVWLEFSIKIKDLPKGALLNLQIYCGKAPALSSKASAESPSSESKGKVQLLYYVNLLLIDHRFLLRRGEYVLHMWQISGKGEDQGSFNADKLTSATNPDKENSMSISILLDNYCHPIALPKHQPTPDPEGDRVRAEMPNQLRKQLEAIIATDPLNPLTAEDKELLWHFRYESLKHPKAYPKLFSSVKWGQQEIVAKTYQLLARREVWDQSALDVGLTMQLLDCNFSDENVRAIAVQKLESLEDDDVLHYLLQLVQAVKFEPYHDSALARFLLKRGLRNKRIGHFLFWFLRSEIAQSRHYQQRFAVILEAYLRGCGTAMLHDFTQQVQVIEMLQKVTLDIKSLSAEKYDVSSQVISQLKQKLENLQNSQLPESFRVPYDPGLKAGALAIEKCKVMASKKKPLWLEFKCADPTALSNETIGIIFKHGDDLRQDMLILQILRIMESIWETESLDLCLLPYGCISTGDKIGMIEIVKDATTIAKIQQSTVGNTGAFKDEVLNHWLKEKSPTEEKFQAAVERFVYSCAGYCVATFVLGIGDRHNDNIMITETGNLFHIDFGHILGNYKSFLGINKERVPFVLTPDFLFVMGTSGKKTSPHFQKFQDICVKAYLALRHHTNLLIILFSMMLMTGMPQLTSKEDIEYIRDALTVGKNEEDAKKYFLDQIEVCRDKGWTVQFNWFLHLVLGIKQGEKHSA
Compound,IC50 (human TOR) [nM],IC50 (PI3K-gamma) [nM],IC50 (PI3K-alpha) [nM]
"COc1ccc2[nH]c(-c3c(C)nn(C)c3C)c(/C=C3\Oc4ccc(NC(=O)Nc5ccc(C(=O)N6CCN(C)C(C)C6)cc5)cc4C3=O)c2c1 (stereo not drawn) [Compound 703, 1-{4-[(3,4-dimethylpiperazin-1-yl)carbonyl]phenyl}-3-[(2Z)-2-{[5-methoxy-2-(1,3,5-trimethyl-1H-pyrazol-4-yl)-1H-indol-3-yl]methylidene}-3-oxo-2,3-dihydro-1-benzofuran-5-yl]urea]",3,2.5,0.3
"COc1ccc2[nH]c(-c3c(C)nn(C)c3C)c(/C=C3\Oc4ccc(NC(=O)Nc5ccc(C(=O)N(C)C)cc5)cc4C3=O)c2c1 [Compound 704, 4-({[(2Z)-2-{[5-methoxy-2-(1,3,5-trimethyl-1H-pyrazol-4-yl)-1H-indol-3-yl]methylidene}-3-oxo-2,3-dihydro-1-benzofuran-5-yl]carbamoyl}amino)-N,N-dimethylbenzamide]",4,4,0.6
"CNC(=O)Nc1ccc2c(c1)C(=O)/C(=C/c1c(-c3c(C)nn(CCN(C)C)c3C)[nH]c3ccc(OC)cc13)O2 [Compound 705, 1-{(2Z)-2-[(2-{1-[2-(dimethylamino)ethyl]-3,5-dimethyl-1H-pyrazol-4-yl}-5-methoxy-1H-indol-3-yl)methylidene]-3-oxo-2,3-dihydro-1-benzofuran-5-yl}-3-methylurea]",26,25.5,5.5
"CNC(=O)Nc1ccc2c(c1)C(=O)/C(=C/c1c(-c3cnn(CC(C)C)c3)[nH]c3ccc(OC)cc13)O2 [Compound 706, 1-[(2Z)-2-({5-methoxy-2-[1-(2-methylpropyl)-1H-pyrazol-4-yl]-1H-indol-3-yl}methylidene)-3-oxo-2,3-dihydro-1-benzofuran-5-yl]-3-methylurea]",10,10,1.3
"COc1ccc2[nH]c(-c3c(C)nn(C)c3C)c(/C=C3\Oc4ccc(NC(=O)Nc5cccc(C(=O)N(C)CCN(C)C)c5)cc4C3=O)c2c1 [Compound 707, N-[2-(dimethylamino)ethyl]-3-({[(2Z)-2-{[5-methoxy-2-(1,3,5-trimethyl-1H-pyrazol-4-yl)-1H-indol-3-yl]methylidene}-3-oxo-2,3-dihydro-1-benzofuran-5-yl]carbamoyl}amino)-N-methylbenzamide]",85,123,8
"COc1ccc2[nH]c(-c3c(C)nn(C)c3C)c(/C=C3\Oc4ccc(NC(=O)Nc5cccc(C(=O)N(C)CCCN(C)C)c5)cc4C3=O)c2c1 [Compound 708, N-[3-(dimethylamino)propyl]-3-({[(2Z)-2-{[5-methoxy-2-(1,3,5-trimethyl-1H-pyrazol-4-yl)-1H-indol-3-yl]methylidene}-3-oxo-2,3-dihydro-1-benzofuran-5-yl]carbamoyl}amino)-N-methylbenzamide]",115,351,42
"CNC(=O)Nc1ccc2c(c1)C(=O)/C(=C/c1c(-c3c(C)nn(CCOC)c3C)[nH]c3ccc(OC)cc13)O2 [Compound 709, 1-[(2Z)-2-({5-methoxy-2-[1-(2-methoxyethyl)-3,5-dimethyl-1H-pyrazol-4-yl]-1H-indol-3-yl}methylidene)-3-oxo-2,3-dihydro-1-benzofuran-5-yl]-3-methylurea]",43,248,47
"COc1ccc2[nH]c(-c3c(C)nn(C)c3C)c(/C=C3\Oc4ccc(NC(=O)Nc5ccc(C(=O)NCCN(C)C)cc5)cc4C3=O)c2c1 [Compound 711, N-[2-(dimethylamino)ethyl]-4-({[(2Z)-2-{[5-methoxy-2-(1,3,5-trimethyl-1H-pyrazol-4-yl)-1H-indol-3-yl]methylidene}-3-oxo-2,3-dihydro-1-benzofuran-5-yl]carbamoyl}amino)benzamide]",< 1,2.25,0.4
"CNC(=O)Nc1ccc2c(c1)C(=O)/C(=C/c1c(-c3c(C)nn(C)c3C)[nH]c3c(OC)c(F)c(OC)cc13)O2 [Compound 712, 1-[(2Z)-2-{[6-fluoro-5,7-dimethoxy-2-(1,3,5-trimethyl-1H-pyrazol-4-yl)-1H-indol-3-yl]methylidene}-3-oxo-2,3-dihydro-1-benzofuran-5-yl]-3-methylurea]",240,246,23
"CNC(=O)Nc1ccc2c(c1)C(=O)/C(=C/c1c(-c3c(C)nn(C)c3C)[nH]c3c(F)c(F)c(OC)cc13)O2 [Compound 713, 1-[(2Z)-2-{[6,7-difluoro-5-methoxy-2-(1,3,5-trimethyl-1H-pyrazol-4-yl)-1H-indol-3-yl]methylidene}-3-oxo-2,3-dihydro-1-benzofuran-5-yl]-3-methylurea]",45,70.5,14
"CNC(=O)Nc1ccc2c(c1)C(=O)/C(=C/c1c(-c3c(C)n[nH]c3C)[nH]c3c(F)cc(OC)cc13)O2 [Compound 714, 1-[(2Z)-2-{[2-(3,5-dimethyl-1H-pyrazol-4-yl)-7-fluoro-5-methoxy-1H-indol-3-yl]methylidene}-3-oxo-2,3-dihydro-1-benzofuran-5-yl]-3-methylurea]",< 1,3.7,0.55
"COc1cc(F)c2[nH]c(-c3c(C)nn(C)c3C)c(/C=C3\Oc4ccc(NC(=O)NCCN)cc4C3=O)c2c1 [Compound 715, 1-(2-aminoethyl)-3-[(2Z)-2-{[7-fluoro-5-methoxy-2-(1,3,5-trimethyl-1H-pyrazol-4-yl)-1H-indol-3-yl]methylidene}-3-oxo-2,3-dihydro-1-benzofuran-5-yl]urea]",1,2.55,0.5
"COc1cc(F)c2[nH]c(-c3c(C)nn(C)c3C)c(/C=C3\Oc4ccc(NC(=O)NCCN(C)C)cc4C3=O)c2c1 [Compound 716, 1-[2-(dimethylamino)ethyl]-3-[(2Z)-2-{[7-fluoro-5-methoxy-2-(1,3,5-trimethyl-1H-pyrazol-4-yl)-1H-indol-3-yl]methylidene}-3-oxo-2,3-dihydro-1-benzofuran-5-yl]urea]",23,3.65,0.8
"CNC(=O)Nc1ccc2c(c1)C(=O)/C(=C/c1c(-c3cnn(CC(C)C)c3)[nH]c3c(F)cc(OC)cc13)O2 [Compound 717, 1-[(2Z)-2-({7-fluoro-5-methoxy-2-[1-(2-methylpropyl)-1H-pyrazol-4-yl]-1H-indol-3-yl}methylidene)-3-oxo-2,3-dihydro-1-benzofuran-5-yl]-3-methylurea]",7,8,2.65
"CNC(=O)Nc1ccc2c(c1)C(=O)/C(=C/c1c(-c3cnn(C)c3)[nH]c3c(F)cc(OC)cc13)O2 [Compound 718, 1-[(2Z)-2-{[7-fluoro-5-methoxy-2-(1-methyl-1H-pyrazol-4-yl)-1H-indol-3-yl]methylidene}-3-oxo-2,3-dihydro-1-benzofuran-5-yl]-3-methylurea]",2,9.5,2.75
"CCn1c(C)c(/C=C2\Oc3ccc(NC(=O)Nc4ccc(CN(C)C)cc4)cc3C2=O)c2cc(OC)ccc21 [Compound 719, 1-{4-[(dimethylamino)methyl]phenyl}-3-{(2Z)-2-[(1-ethyl-5-methoxy-2-methyl-1H-indol-3-yl)methylidene]-3-oxo-2,3-dihydro-1-benzofuran-5-yl}urea]",275,41.5,3.1
"COc1ccc2[nH]c(-c3c(C)nn(C)c3C)c(/C=C3\Oc4ccc(NC(=O)Nc5ccc(C(=O)N6CCS(=O)(=O)CC6)cc5)cc4C3=O)c2c1 [Compound 720, 1-{4-[(1,1-dioxidothiomorpholin-4-yl)carbonyl]phenyl}-3-[(2Z)-2-{[5-methoxy-2-(1,3,5-trimethyl-1H-pyrazol-4-yl)-1H-indol-3-yl]methylidene}-3-oxo-2,3-dihydro-1-benzofuran-5-yl]urea]",2,1.75,0.4
"COc1cc(F)c2[nH]c(-c3c(C)nn(C)c3C)c(/C=C3\Oc4ccc(NC(=O)Nc5ccc(C(=O)N6CCN(CCO)CC6)cc5)cc4C3=O)c2c1 [Compound 721, 1-[(2Z)-2-{[7-fluoro-5-methoxy-2-(1,3,5-trimethyl-1H-pyrazol-4-yl)-1H-indol-3-yl]methylidene}-3-oxo-2,3-dihydro-1-benzofuran-5-yl]-3-(4-{[4-(2-hydroxyethyl)piperazin-1-yl]carbonyl}phenyl)urea]",1,2.25,0.6
"CNC(=O)Nc1ccc2c(c1)C(=O)/C(=C/c1c(-c3cn(C)nc3C)[nH]c3ccc(OC)cc13)O2 [Compound 722, 1-[(2Z)-2-{[2-(1,3-dimethyl-1H-pyrazol-4-yl)-5-methoxy-1H-indol-3-yl]methylidene}-3-oxo-2,3-dihydro-1-benzofuran-5-yl]-3-methylurea]",2,5,1.25
"CNC(=O)Nc1ccc2c(c1)C(=O)/C(=C/c1c(-c3cnn(C)c3C)[nH]c3ccc(OC)cc13)O2 [Compound 723, 1-[(2Z)-2-{[2-(1,5-dimethyl-1H-pyrazol-4-yl)-5-methoxy-1H-indol-3-yl]methylidene}-3-oxo-2,3-dihydro-1-benzofuran-5-yl]-3-methylurea]",3,4.1,1
"CNC(=O)Nc1ccc2c(c1)C(=O)/C(=C/c1c(-c3nn(C)cc3C(F)(F)F)[nH]c3ccc(OC)cc13)O2 [Compound 724, 1-[(2Z)-2-({5-methoxy-2-[1-methyl-4-(trifluoromethyl)-1H-pyrazol-3-yl]-1H-indol-3-yl}methylidene)-3-oxo-2,3-dihydro-1-benzofuran-5-yl]-3-methylurea]",20,30.7,4.7

# From patent publication US20090311217A1, “3-SUBSTITUTED-1H-INDOLE COMPOUNDS, THEIR USE AS MTOR KINASE AND PI3 KINASE INHIBITORS, AND THEIR SYNTHESES” (priority 2008, published 2009)
